Data on 2 compounds can be found in US20110159507A1, “METHOD FOR DETECTING THE DRUG EFFECTS OF DNA METHYLATION-INHIBITORS” (SCHOOL JURIDICAL PERSON THE KITASATO INSTITUTE, priority 2008, published 2011).

Experiment [1] relates to K562 PU.1 KD cells (PU 2-10 and PU 3-10). In words: cell viability assay (WST-8), percentages of dead cells after drug administration, PU.1 gene-knockdown cells vs control cells. Conditions: for drug sensitivity of PU.1 gene-knockdown cells to the DNA methylation inhibitor: K562 PU.1 KD cells. The format is cell-based. The source says:
FIGS. 1(a) and 1(b) illustrate and show the results of establishment experiments of PU.1-knockdown lines (K562 PU.1 KD cells). That is, a PU.1 siRNA expression vector (Takara, Ohtsu, Japan) and its control vector (Takara) were introduced into K562 cells as leukemia cell lines in accordance with the method described in the document (Takahashi Set al., British Journal of Haematology, 2005 (130), p 428-436). Specifically, in the method, electroporation was employed to introduce the expression vector and its control vector into leukemia cell lines (K562 cells). The introduced cells were cultured in an RPMI medium in the presence of 1 μg/mL puromycin to select cells that constitutively express PU.1 siRNAs and isolate the cells by a limiting dilution method. The isolated control cells (Control K562) (V5 and V6) and PU.1-knockdown cells (2-10 and 3-10) (K562 PU.1 KD cells) were used to prepare proteins based on a conventional method. The proteins were subjected to SDS-PAGE electrophoresis, then transferred to a membrane, and blotted with a PU.1 antibody and β-actin useful for the estimation of protein amounts (FIG. 1(a)).
Two kinds of PU.1 gene-knockdown cells (PU 2-10 and PU 3-10) and control cells (vec 5 and vec 6) were compared for their sensitivities to 5-azadc (AZA) (% effect: percentages of dead cells after drug administration). In other words, the respective cells were seeded in a 96-well plate at a density of 2,000 cells/well, and 5-azadc (AZA) was added into the well at concentrations of 0.2, 1, 3.9, 15.6, 62.5, 250, and 1,000 nM. Then, cell viability assays were performed after 96 hours. In the assays, 10 μL of a WST-8 reagent (Dojindo, Japan) were added to a well in which 100 μL of a cell culture medium had been loaded, culture was performed in a 5% CO2 incubator at 37° C. for 2 hours, and the absorbance is then measured using a microplate reader at a wavelength of 490 nm, to thereby measure cell viability. FIG. 7 illustrates the results in terms of percentages of dead cells (% effect).

Experiment [2] concerns K562 PU.1 OE cells (A2 and H8). As to the kind of experiment: cell viability assay (WST-8), percentages of dead cells after drug administration, PU.1 gene-overexpressing cells vs control cells. The format is cell-based. The source says: FIGS. 3(a) and 3(b) illustrate and show the results of establishment experiments of PU.1-overexpressing cell lines (K562 PU.1 OE cells). That is, the PU.1 expression vector described in the literature was used (Inomata et al., Leukemia Research 30 (2006) p 659-664). The expression vector and its control vector pcDNA3.1 (Invitrogen, CA) were introduced into K562 cells as leukemia cell lines in accordance with the method described in literature (Takahashi S et al., British Journal of Haematology, 2005 (130), p 428-436). The introduced cells were cultured in an RPMI medium in the presence of 400 μg/mL Neomycin to select cells that constitutively express PU.1 and isolate the cells by a limiting dilution method. […]
Two kinds of PU.1 gene-knockdown cells (PU 2-10 and PU 3-10) and control cells (vec 5 and vec 6) were compared for their sensitivities to 5-azadc (AZA) (% effect: percentages of dead cells after drug administration). […] In the assays, 10 μL of a WST-8 reagent (Dojindo, Japan) were added to a well in which 100 μL of a cell culture medium had been loaded, culture was performed in a 5% CO2 incubator at 37° C. for 2 hours, and the absorbance is then measured using a microplate reader at a wavelength of 490 nm, to thereby measure cell viability. […]

SMILES strings stand for the structures.

On to `Nc1ncn([C@@H]2O[C@H](CO)[C@@H](O)[C@H]2O)c(=O)n1` [5-azacytidine], for which the “drug sensitivity of PU.1 gene-knockdown cells to the DNA methylation inhibitor” value in experiment [1] was “resistant”.

Consider `Nc1ncn([C@H]2C[C@H](O)[C@@H](CO)O2)c(=O)n1` [5-azadc, 5-aza-2′-deoxycytidine], for which the “percentages of dead cells (% effect): higher than in control cells (vec 1 and vec 2) by” value in experiment [2] (A2 and H8, same experiment as FIG. 7 (0.2-1,000 nM, 96 hours), FIG. 8) is reported as “about 20%”. Also, in experiment [2] (K562 PU.1 OE cells), the “drug sensitivity of PU.1 gene-overexpressing cells to the DNA methylation inhibitor” value is on record as “highly sensitive”. In addition, the “drug sensitivity of PU.1 gene-knockdown cells to the DNA methylation inhibitor” value was “resistant and poorly sensitive” in experiment [1]; “resistant” in experiment [1] (listed as 5-aza-2′-deoxycytidine). In addition, the “percentages of dead cells (% effect): lower than in control cells (vec 5 and vec 6) by” value in experiment [1] (PU 2-10 and PU 3-10, 0.2-1,000 nM, 96 hours, FIG. 7) was “about 20%”.
